In PubChem BioAssay AID2060610 (Molecular Pharmacology Branch, DTP, NCI, 2025):
Several values for one entry are separate records, joined by “and”; a condition that tells them apart may be missing. Identical values can stand only once. Blank lines part the entries; values can stand above or below the molecule they belong to.

System: 616215-338-R-J1-PDC complex spheroids, viability % test/control
Assay: Anticancer human tumor 616215-338-R-J1-PDC patient-derived colon adenocarcinoma cell line growth inhibition [CLK]
Conditions: for viability, T/C: stronger effect = lower value
How it was run: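 Multi-cell-type spheroids combined patient-derived tumor cells with HUVEC endothelial cells and human mesenchymal stem cells. Paired agents were dosed in half-log steps down from about clinical Cmax, or from 10 microM where Cmax was unknown.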

[1] = curve of first compound, second compound 0.0316 µM
[2] = curve of first compound, second compound 0.1 µM
[3] = curve of first compound, second compound 0.316 µM
[4] = curve of first compound, second compound 1 µM
[5] = curve of first compound, second compound 3.16 µM
[6] = curve of first compound, second compound 10 µM
[7] = second compound 0.0316 µM, first compound 0.0316 µM
[8] = second compound 0.0316 µM, first compound 0.1 µM
[9] = second compound 0.0316 µM, first compound 0.316 µM
[10] = second compound 0.0316 µM, first compound 1 µM
[11] = second compound 0.0316 µM, first compound 3.16 µM
[12] = second compound 0.0316 µM, first compound 10 µM
[13] = second compound 0.1 µM, first compound 0.0316 µM
[14] = second compound 0.1 µM, first compound 0.1 µM
[15] = second compound 0.1 µM, first compound 0.316 µM
[16] = second compound 0.1 µM, first compound 1 µM
[17] = second compound 0.1 µM, first compound 3.16 µM
[18] = second compound 0.1 µM, first compound 10 µM
[19] = second compound 0.316 µM, first compound 0.0316 µM
[20] = second compound 0.316 µM, first compound 0.1 µM
[21] = second compound 0.316 µM, first compound 0.316 µM
[22] = second compound 0.316 µM, first compound 1 µM
[23] = second compound 0.316 µM, first compound 3.16 µM
[24] = second compound 0.316 µM, first compound 10 µM
[25] = second compound 1 µM, first compound 0.0316 µM
[26] = second compound 1 µM, first compound 0.1 µM
[27] = second compound 1 µM, first compound 0.316 µM
[28] = second compound 1 µM, first compound 1 µM
[29] = second compound 1 µM, first compound 3.16 µM
[30] = second compound 1 µM, first compound 10 µM
[31] = second compound 3.16 µM, first compound 0.0316 µM
[32] = second compound 3.16 µM, first compound 0.1 µM
[33] = second compound 3.16 µM, first compound 0.316 µM
[34] = second compound 3.16 µM, first compound 1 µM
[35] = second compound 3.16 µM, first compound 3.16 µM
[36] = second compound 3.16 µM, first compound 10 µM
[37] = second compound 10 µM, first compound 0.0316 µM
[38] = second compound 10 µM, first compound 0.1 µM
[39] = second compound 10 µM, first compound 0.316 µM
[40] = second compound 10 µM, first compound 1 µM
[41] = second compound 10 µM, first compound 3.16 µM
[42] = second compound 10 µM, first compound 10 µM
[43] = second compound 0.0316 µM, first compound 0.00949 µM
[44] = second compound 0.0316 µM, first compound 0.03 µM
[45] = second compound 0.0316 µM, first compound 0.0949 µM
[46] = second compound 0.0316 µM, first compound 0.3 µM
[47] = second compound 0.1 µM, first compound 0.00949 µM
[48] = second compound 0.1 µM, first compound 0.03 µM
[49] = second compound 0.1 µM, first compound 0.0949 µM
[50] = second compound 0.1 µM, first compound 0.3 µM
[51] = second compound 0.316 µM, first compound 0.00949 µM
[52] = second compound 0.316 µM, first compound 0.03 µM
[53] = second compound 0.316 µM, first compound 0.0949 µM
[54] = second compound 0.316 µM, first compound 0.3 µM
[55] = second compound 1 µM, first compound 0.00949 µM
[56] = second compound 1 µM, first compound 0.03 µM
[57] = second compound 1 µM, first compound 0.0949 µM
[58] = second compound 1 µM, first compound 0.3 µM
[59] = second compound 3.16 µM, first compound 0.00949 µM
[60] = second compound 3.16 µM, first compound 0.03 µM
[61] = second compound 3.16 µM, first compound 0.0949 µM
[62] = second compound 3.16 µM, first compound 0.3 µM
[63] = second compound 10 µM, first compound 0.00949 µM
[64] = second compound 10 µM, first compound 0.03 µM
[65] = second compound 10 µM, first compound 0.0949 µM
[66] = second compound 10 µM, first compound 0.3 µM
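Further: spheroids exposed to agents for 7 days.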
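Wherever viability, T/C is given: 100% = DMSO vehicle wells.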

Structure (SMILES): COc1ccc([C@@H](O)c2cc(-c3ncnc4cc(N5CCOCC5)ccc34)c(F)cc2Cl)nn1 + CN1CCN(c2cc(C(=O)Nc3cc4cc(-c5cnn(C)c5)ccc4cn3)ccn2)CC1
IC50 [1]: > 10000 nM
IC50 [2]: 9460 nM
IC50 [3]: < 31.6 nM
IC50 [4]: < 31.6 nM
IC50 [5]: < 31.6 nM
IC50 [6]: < 31.6 nM
viability, T/C [7]: 105%
viability, T/C [8]: 106%
viability, T/C [9]: 105%
viability, T/C [10]: 109%
viability, T/C [11]: 111%
viability, T/C [12]: 67.7%
viability, T/C [13]: 122%
viability, T/C [14]: 107%
viability, T/C [15]: 104%
viability, T/C [16]: 103%
viability, T/C [17]: 88.4%
viability, T/C [18]: 47.2%
viability, T/C [19]: 25.2%
viability, T/C [20]: 30.6%
viability, T/C [21]: 25.9%
viability, T/C [22]: 19.8%
viability, T/C [23]: 17.9%
viability, T/C [24]: 7.77%
viability, T/C [25]: 0.11%
viability, T/C [26]: 0.15%
viability, T/C [27]: 1.72%
viability, T/C [28]: 0.1%
viability, T/C [29]: 0.59%
viability, T/C [30]: 0.08%
viability, T/C [31]: 0.09%
viability, T/C [32]: 0.13%
viability, T/C [33]: 0.15%
viability, T/C [34]: 0.1%
viability, T/C [35]: 0.14%
viability, T/C [36]: 0.12%
viability, T/C [37]: 0.11%
viability, T/C [38]: 0.13%
viability, T/C [39]: 0.18%
viability, T/C [40]: 0.18%
viability, T/C [41]: 1.74%
viability, T/C [42]: 0.19%

Structure (SMILES): Nc1ccn(C2OC(CO)C(O)C2(F)F)c(=O)n1 (stereo not given)
viability, T/C (compound 0.0316 µM): 13.9% and 20.9%
viability, T/C (compound 0.1 µM): 11.6% and 15.4%
viability, T/C (compound 0.316 µM): 9.93% and 15.4%
viability, T/C (compound 1 µM): 13.5% and 17%
viability, T/C (compound 3.16 µM): 9.75% and 16.1%
viability, T/C (compound 10 µM): 11.3% and 14.7%
IC50 (curve of compound): < 31.6 nM

Structure (SMILES): Nc1ccn(C2OC(CO)C(O)C2(F)F)c(=O)n1 (stereo not given) + CNC(=O)c1ccc(Nc2nc(OC3CCCC3)c3c(-c4ccc5nc(C)oc5c4)c[nH]c3n2)c(OC)c1
IC50 [1]: < 31.6 nM
IC50 [2]: < 31.6 nM
IC50 [3]: < 31.6 nM
IC50 [4]: < 31.6 nM
IC50 [5]: < 31.6 nM
IC50 [6]: < 31.6 nM
viability, T/C [7]: 21.9%
viability, T/C [8]: 14.5%
viability, T/C [9]: 18.9%
viability, T/C [10]: 14.9%
viability, T/C [11]: 20.3%
viability, T/C [12]: 18.9%
viability, T/C [13]: 18.2%
viability, T/C [14]: 18.4%
viability, T/C [15]: 16.8%
viability, T/C [16]: 14.6%
viability, T/C [17]: 21%
viability, T/C [18]: 17.4%
viability, T/C [19]: 22.1%
viability, T/C [20]: 17.2%
viability, T/C [21]: 18.1%
viability, T/C [22]: 17.1%
viability, T/C [23]: 18.7%
viability, T/C [24]: 20.2%
viability, T/C [25]: 18.7%
viability, T/C [26]: 15.9%
viability, T/C [27]: 16.9%
viability, T/C [28]: 17.8%
viability, T/C [29]: 16.6%
viability, T/C [30]: 15.6%
viability, T/C [31]: 19.1%
viability, T/C [32]: 15.8%
viability, T/C [33]: 18.6%
viability, T/C [34]: 18.1%
viability, T/C [35]: 21.9%
viability, T/C [36]: 18.3%
viability, T/C [37]: 21.8%
viability, T/C [38]: 15%
viability, T/C [39]: 18.6%
viability, T/C [40]: 18.2%
viability, T/C [41]: 23.1%
viability, T/C [42]: 17.9%

Further lines, with some results ahead:

IC50 [1]: > 300 nM
IC50 [2]: 2.07 nM
IC50 [3]: < 0.949 nM
IC50 [4]: < 0.949 nM
IC50 [5]: < 0.949 nM
IC50 [6]: < 0.949 nM
Structure (SMILES): C=CC(=O)Nc1cc(Nc2nccc(-c3cn(C)c4ccccc34)n2)c(OC)cc1N(C)CCN(C)C + CNC(=O)c1ccc(Nc2nc(OC3CCCC3)c3c(-c4ccc5nc(C)oc5c4)c[nH]c3n2)c(OC)c1
viability, T/C (second compound 0.0316 µM, first compound 0.000949 µM): 94.3%
viability, T/C (second compound 0.0316 µM, first compound 0.003 µM): 87.8%
viability, T/C [43]: 90.3%
viability, T/C [44]: 89.4%
viability, T/C [45]: 98.7%
viability, T/C [46]: 95.8%
viability, T/C (second compound 0.1 µM, first compound 0.000949 µM): 52.1%
viability, T/C (second compound 0.1 µM, first compound 0.003 µM): 51.2%
viability, T/C [47]: 42.3%
viability, T/C [48]: 36.6%
viability, T/C [49]: 40.9%
viability, T/C [50]: 28.5%
viability, T/C (second compound 0.316 µM, first compound 0.000949 µM): 43.9%
viability, T/C (second compound 0.316 µM, first compound 0.003 µM): 37.9%
viability, T/C [51]: 39.2%
viability, T/C [52]: 36.7%
viability, T/C [53]: 31.6%
viability, T/C [54]: 25.8%
viability, T/C (second compound 1 µM, first compound 0.000949 µM): 43.6%
viability, T/C (second compound 1 µM, first compound 0.003 µM): 41.9%
viability, T/C [55]: 39.7%
viability, T/C [56]: 39%
viability, T/C [57]: 31.8%
viability, T/C [58]: 24.4%
viability, T/C (second compound 3.16 µM, first compound 0.000949 µM): 39.3%
viability, T/C (second compound 3.16 µM, first compound 0.003 µM): 42.8%
viability, T/C [59]: 41%
viability, T/C [60]: 34.3%
viability, T/C [61]: 28%
viability, T/C [62]: 20.1%
viability, T/C (second compound 10 µM, first compound 0.000949 µM): 40.1%
viability, T/C (second compound 10 µM, first compound 0.003 µM): 40.7%
viability, T/C [63]: 33.8%
viability, T/C [64]: 28.8%
viability, T/C [65]: 25.8%
viability, T/C [66]: 22.7%

IC50 [1]: 651 nM
IC50 [2]: < 9.49 nM
IC50 [3]: < 9.49 nM
IC50 [4]: < 9.49 nM
IC50 [5]: < 9.49 nM
IC50 [6]: < 9.49 nM
Structure (SMILES): NC(=O)C(=Cn1cnc(-c2cc(C(F)(F)F)cc(C(F)(F)F)c2)n1)c1cncnc1 + CNC(=O)c1ccc(Nc2nc(OC3CCCC3)c3c(-c4ccc5nc(C)oc5c4)c[nH]c3n2)c(OC)c1
viability, T/C [43]: 84.9%
viability, T/C [44]: 95.5%
viability, T/C [45]: 96%
viability, T/C [46]: 77.6%
viability, T/C (second compound 0.0316 µM, first compound 0.949 µM): 36.6%
viability, T/C (second compound 0.0316 µM, first compound 3 µM): 18.4%
viability, T/C [47]: 45.4%
viability, T/C [48]: 48.2%
viability, T/C [49]: 34.1%
viability, T/C [50]: 33.1%
viability, T/C (second compound 0.1 µM, first compound 0.949 µM): 32.5%
viability, T/C (second compound 0.1 µM, first compound 3 µM): 15.8%
viability, T/C [51]: 34%
viability, T/C [52]: 30.4%
viability, T/C [53]: 29.7%
viability, T/C [54]: 25.4%
viability, T/C (second compound 0.316 µM, first compound 0.949 µM): 29.3%
viability, T/C (second compound 0.316 µM, first compound 3 µM): 12.8%
viability, T/C [55]: 34.5%
viability, T/C [56]: 33.4%
viability, T/C [57]: 30.5%
viability, T/C [58]: 26.9%
viability, T/C (second compound 1 µM, first compound 0.949 µM): 18.3%
viability, T/C (second compound 1 µM, first compound 3 µM): 7.01%
viability, T/C [59]: 33.5%
viability, T/C [60]: 35%
viability, T/C [61]: 27.7%
viability, T/C [62]: 23.3%
viability, T/C (second compound 3.16 µM, first compound 0.949 µM): 13.1%
viability, T/C (second compound 3.16 µM, first compound 3 µM): 4.39%
viability, T/C [63]: 31.3%
viability, T/C [64]: 28.5%
viability, T/C [65]: 28.9%
viability, T/C [66]: 19.7%
viability, T/C (second compound 10 µM, first compound 0.949 µM): 10.8%
viability, T/C (second compound 10 µM, first compound 3 µM): 2.88%
